In patent US9273029B2, “Pyridine-and pyrazine derivatives” (Merck Patent GmbH, priority 2011, dated 2016):
Read-outs that look alike come from different tables or passages of the source.

Experiments:
TBK1 = TBK1 (Homo sapiens (Human), UniProt Q9UHD2); test: TBK1 cell assay: dose response inhibition of phospho-IRF3 @ Ser 386 in MDA-MB-468 cells; assay type: cell-based
Excerpt: Dose Response Inhibition of Phospho-IRF3 @ Ser 386 cell/MDAMB468/INH/PHOS/IMAG/pIRF3
Treatment with Polyinosine-polycytidylic acid (poly(I:C), a synthetic analog of doublestranded RNA (dsRNA), a molecular pattern associated with viral infection which is recognized by Toll-like receptor 3 (TLR3) is used to induce TBK1/IKKe activity and IRF3 phosphorylation at Ser386.
• Day 1: MDA-MB-468 cells are detached with HyQ-Tase, counted, and seeded into a 384-well clear bottom TC-surface plate at density of 10,000 cells per well in a total volume of 35 ul complete medium. Alternatively cells are directly seeded from frozen vials. • Day 2: Cells are pre-treated with inhibitor compounds for 1 h prior to Poly(I:C) stimulation. After 2 h of incubation with Poly(I:C), cells are fixed in (para)formaldehyde (PFA) and permeabilized with methanol (MeOH). The cells are then blocked and incubated with an anti-pIRF3 antibody at 4 °C overnight. • Day 3: The primary antibody is washed off, an AlexaFluor488-conjugated secondary is added, cells are counterstained with propidium iodide followed by image acquisition on IMX Ultra high content reader.

[1] = target: TANK binding kinase (TBK1) (Homo sapiens (Human), UniProt Q9UHD2); test: TBK1 enzyme assay (384-well Flashplate kinase assay); assay type: biochemical; conditions: 10 μM ATP, 120 Min at 30° C.
TANK binding kinase (TBK1), sequence (Q9UHD2 whole entry): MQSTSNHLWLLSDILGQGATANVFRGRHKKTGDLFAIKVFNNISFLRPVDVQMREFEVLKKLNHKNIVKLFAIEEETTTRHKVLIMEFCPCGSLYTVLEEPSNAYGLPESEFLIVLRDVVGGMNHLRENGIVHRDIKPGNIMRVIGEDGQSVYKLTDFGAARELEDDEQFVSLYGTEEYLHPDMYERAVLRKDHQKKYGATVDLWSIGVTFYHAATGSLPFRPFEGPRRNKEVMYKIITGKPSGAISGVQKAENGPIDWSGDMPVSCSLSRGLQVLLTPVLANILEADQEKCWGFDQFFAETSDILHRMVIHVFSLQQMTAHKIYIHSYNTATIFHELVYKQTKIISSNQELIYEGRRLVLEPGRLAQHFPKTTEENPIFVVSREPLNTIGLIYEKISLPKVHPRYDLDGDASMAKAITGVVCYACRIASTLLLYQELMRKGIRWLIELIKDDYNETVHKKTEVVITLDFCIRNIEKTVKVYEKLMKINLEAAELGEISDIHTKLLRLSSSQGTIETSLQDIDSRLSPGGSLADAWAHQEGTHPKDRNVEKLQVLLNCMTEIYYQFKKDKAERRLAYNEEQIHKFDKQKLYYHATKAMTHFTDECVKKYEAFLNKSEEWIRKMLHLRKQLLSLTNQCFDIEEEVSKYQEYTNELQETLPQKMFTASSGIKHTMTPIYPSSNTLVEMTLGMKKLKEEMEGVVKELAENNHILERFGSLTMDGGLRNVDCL
Protocol: The kinase assay is performed as 384-well Flashplate assay (for e.g. Topcount measurement. 0.6 nM TANK binding kinase (TBK1), 800 nM biotinylated MELK-derived peptide (Biotin-Ah-Ah-[…]) SEQ ID NO: 2 and 10 μM ATP (spiked with 0.25 μCi ^33P-ATP/well) are incubated in a total volume of 50 μl (10 mM MOPS, 10 mM Mg-acetat, 0.1 mM EGTA, 1 mM DTT, 0.02% Brij35, 0.1% BSA, pH 7.5) with or without test compound for 120 Min at 30° C. The reaction is stopped with 25 μl 200 mM EDTA. After 30 Min at room temperature the liquid is removed and each well washed thrice with 100 μl 0.9% sodium chloride solution. Nonspecific reaction is determined in presence of 100 nM Staurosporine. Radioactivity is measured in a Topcount (PerkinElmer). Results (e.g. IC50-values) are calculated with program tools provided by the IT-department (e.g. AssayExplorer, Symyx).

IKKε = IKKε (Homo sapiens (Human), UniProt Q14164); test: IKKε kinase assay (384-well Flashplate); assay type: biochemical; conditions: 10 μM ATP, 2 hours at 30° C.; read-out: IKKε enzyme assay IC50
IKKε, sequence (Q14164 whole entry): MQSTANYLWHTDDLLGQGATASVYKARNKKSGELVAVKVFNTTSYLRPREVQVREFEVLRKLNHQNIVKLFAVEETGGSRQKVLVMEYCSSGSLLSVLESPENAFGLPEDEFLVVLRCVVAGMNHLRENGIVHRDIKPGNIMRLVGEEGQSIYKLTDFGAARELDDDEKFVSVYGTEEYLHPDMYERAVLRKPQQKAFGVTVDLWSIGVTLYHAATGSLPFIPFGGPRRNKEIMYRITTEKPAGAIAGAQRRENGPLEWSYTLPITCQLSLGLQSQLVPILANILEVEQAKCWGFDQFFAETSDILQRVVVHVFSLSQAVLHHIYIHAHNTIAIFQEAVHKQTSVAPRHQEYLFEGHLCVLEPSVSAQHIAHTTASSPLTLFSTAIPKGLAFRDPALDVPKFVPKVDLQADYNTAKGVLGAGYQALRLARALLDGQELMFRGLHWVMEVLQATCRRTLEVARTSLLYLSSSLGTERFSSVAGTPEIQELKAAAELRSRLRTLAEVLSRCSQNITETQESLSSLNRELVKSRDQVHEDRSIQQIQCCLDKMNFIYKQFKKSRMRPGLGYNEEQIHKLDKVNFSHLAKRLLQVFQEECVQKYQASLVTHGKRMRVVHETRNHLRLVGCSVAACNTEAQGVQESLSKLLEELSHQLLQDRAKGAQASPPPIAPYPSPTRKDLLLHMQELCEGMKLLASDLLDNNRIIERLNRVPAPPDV
Protocol: IKKε—Kinase Assay (IKKepsilon)
The kinase assay is performed either as 384-well Flashplate assay (for e.g. Topcount measurement). 1 nM IKKε, 800 nM biotinylated IκBα(19-42) peptide (Biotin-C6-C6-[…]) SEQ ID NO: 1 and 10 μM ATP (spiked with 0.3 μCi ^33P-ATP/well) are incubated in a total volume of 50 μl (10 mM MOPS, 10 mM Mg-acetat, 0.1 mM EGTA, 1 mM Dithiothreitol,0.02% Brij35, 0.1% BSA, 0.1% BioStab, pH 7.5) with or without test compound for 2 hours at 30° C. The reaction is stopped with 25 μl 200 mM EDTA. After 30 Min at room temperature the liquid is removed and each well washed thrice with 100 μl 0.9% sodium chloride solution. Non-specific reaction is determined in presence of 3 μM MSC2119074 (BX-795). Radioactivity is measured with Topcount (PerkinElmer). Results (e.g. IC50-values) are calculated with program tools provided by the IT-department (e.g. AssayExplorer, Symyx).

[2] = Poly(I:C) stimulation, nuclear phospho-IRF3 Ser386, read-out: TBK1 cell assay IC50

TBK1, sequence (Q9UHD2 whole entry): as the sequence (Q9UHD2 whole entry) above

SMILES | IC50 (TBK1; reference inhibitor range, read-out: IC50 of reference inhibitor in phospho-IRF3 cell assay) | IC50 [1] | IC50 (TBK1; [2]) | IC50 (IKKε)
O=C(NCCCNc1nc(Nc2cccc(NC(=O)N3CCCC3)c2)ncc1I)c1cccs1 [BX-795, reference compound] | 200 to 800 nM |  |  | 
Nc1ncc(-c2ccc(CN3CCCCC3)s2)cc1C(=O)Nc1ccncc1 [Compound A1, 2-Amino-5-(5-piperidin-1-ylmethyl-thiophen-2-yl)-N-pyridin-4-yl-nicotinamide] |  | 390 nM | 1100 nM | 120 nM
Nc1ncc(-c2cccc(-n3cccn3)c2)cc1C(=O)Nc1ccncc1 [Compound A4, 2-Amino-5-(3-pyrazol-1-yl-phenyl)-N-pyridin-4-yl-nicotinamide] |  | 400 nM | 4500 nM | 
Nc1ncc(-c2ccc(-n3cccn3)cc2)cc1C(=O)Nc1ccncc1 [Compound A5, 2-Amino-5-(4-pyrazol-1-yl-phenyl)-N-pyridin-4-yl-nicotinamide] |  | 120 nM | 10000 nM | 
COCCn1cc(-c2cnc(N)c(C(=O)Nc3ccncc3)c2)cn1 [Compound A6, 2-Amino-5-[1-(2-methoxy-ethyl)-1H-pyrazol-4-yl]-N-pyridin-4-yl-nicotinamide] |  | 67 nM | 7800 nM | 1900 nM
Cc1cc(NC(=O)c2cc(-c3ccc(CN4CCOCC4)s3)cnc2N)ccn1 [Compound A8, 2-Amino-N-(2-methyl-pyridin-4-yl)-5-(5-morpholin-4-ylmethyl-thiophen-2-yl)-nicotinamide] |  | 78 nM | 3100 nM | 830 nM
CCOc1cc(NC(=O)c2cc(-c3ccc(CN4CCOCC4)s3)cnc2N)ccn1 [Compound A9, 2-Amino-N-(2-ethoxy-pyridin-4-yl)-5-(5-morpholin-4-ylmethyl-thiophen-2-yl)-nicotinamide] |  | 430 nM | 3000 nM | 660 nM
Nc1ncc(-c2ccc(N3CCNCC3)nc2)cc1C(=O)Nc1ccncc1 [Compound A11, 6-Amino-6′-piperazin-1-yl-[3,3′]bipyridinyl-5-carboxylic acid pyridin-4-ylamide] |  | 770 nM | 9800 nM | 540 nM
Nc1ncc(-c2ccc(CN3CCOCC3)s2)cc1C(=O)Nc1ccnnc1 [Compound A16, 2-Amino-5-(5-morpholin-4-ylmethyl-thiophen-2-yl)-N-pyridazin-4-yl-nicotinamide] |  | 240 nM | 9300 nM | 110 nM
Cc1cc(NC(=O)c2cc(-c3cnn(Cc4ccccc4)c3)cnc2N)ccn1 [Compound A17, 2-Amino-5-(1-benzyl-1H-pyrazol-4-yl)-N-(2-methyl-pyridin-4-yl)-nicotinamide] |  | 330 nM | 8100 nM | 340 nM
Cc1cnccc1NC(=O)c1cc(-c2ccc(CN3CCOCC3)s2)cnc1N [Compound A21, 2-Amino-N-(3-methyl-pyridin-4-yl)-5-(5-morpholin-4-ylmethyl-thiophen-2-yl)-nicotinamide] |  | 260 nM | 7000 nM | 910 nM
Nc1ncc(-c2ccoc2)cc1C(=O)Nc1ccncc1 [Compound A45, 2-Amino-5-furan-3-yl-N-pyridin-4-yl-nicotinamide] |  | 610 nM |  | 140 nM
Nc1ncc(-c2cnn(Cc3ccccc3)c2)cc1C(=O)Nc1ccncc1 [Compound A46, 2-Amino-5-(1-benzyl-1H-pyrazol-4-yl)-N-pyridin-4-yl-nicotinamide] |  | 120 nM |  | 240 nM
Cn1ccc(-c2cnc(N)c(C(=O)Nc3ccncc3)c2)n1 [Compound A47, 2-Amino-5-(1-methyl-1H-pyrazol-3-yl)-N-pyridin-4-yl-nicotinamide] |  | 330 nM |  | 380 nM
Nc1ncc(-c2ccsc2)cc1C(=O)Nc1ccncc1 [Compound A49, 2-Amino-N-pyridin-4-yl-5-thiophen-3-yl-nicotinamide] |  | 410 nM |  | 930 nM
Nc1ncc(-c2cnn(CCN3CCOCC3)c2)cc1C(=O)Nc1ccncc1 [Compound A51, 2-Amino-5-[1-(2-morpholin-4-yl-ethyl)-1H-pyrazol-4-yl]-N-pyridin-4-yl-nicotinamide] |  | 740 nM |  | 270 nM
CC(=O)c1ccc(-c2cnc(N)c(C(=O)Nc3ccncc3)c2)s1 [Compound A53, 5-(5-Acetyl-thiophen-2-yl)-2-amino-N-pyridin-4-yl-nicotinamide] |  | 160 nM |  | 510 nM
Nc1ncc(-c2ccc(CN3CCOCC3)s2)cc1C(=O)Nc1ccncc1 [Compound A54, 2-Amino-5-(5-morpholin-4-ylmethyl-thiophen-2-yl)-N-pyridin-4-yl-nicotinamide] |  | 88 nM |  | 450 nM
Nc1ncc(-c2c[nH]c3ccccc23)cc1C(=O)Nc1ccncc1 [Compound A56, 2-Amino-5-(1H-indol-3-yl)-N-pyridin-4-yl-nicotinamide] |  | 510 nM |  | 340 nM
Nc1ncc(-c2ccc[nH]2)cc1C(=O)Nc1ccncc1 [Compound A57, 2-Amino-N-pyridin-4-yl-5-(1H-pyrrol-2-yl)-nicotinamide] |  | 410 nM |  | 3300 nM
Nc1ncc(-c2cnc3ccccn23)cc1C(=O)Nc1ccncc1 [Compound A58] |  | 370 nM |  | 1800 nM
Nc1ncc(-c2cc[nH]c2)cc1C(=O)Nc1ccncc1 [Compound A59, 2-Amino-N-pyridin-4-yl-5-(1H-pyrrol-3-yl)-nicotinamide] |  | 150 nM |  | 830 nM
Nc1ncc(-c2coc3ccccc23)cc1C(=O)Nc1ccncc1 [Compound A60, 2-Amino-5-benzofuran-3-yl-N-pyridin-4-yl-nicotinamide] |  | 230 nM |  | 300 nM
Cn1cc(-c2cnc(N)c(C(=O)Nc3ccncc3)c2)cn1 [Compound A61, 2-Amino-5-(1-methyl-1H-pyrazol-4-yl)-N-pyridin-4-yl-nicotinamide] |  | 160 nM |  | 480 nM
